Data as given in US20020026053A1, “Novel 3-(substituted) -2- indolinones compounds and use thereof as inhibitors of protein kinase activity” (priority 1997, published 2002).
Values joined by “and” are separate entries in the source; they are usually repeats but may differ in a detail not shown here. Identical values can stand only once.

system: FLK-1 receptor; test: FLK-1 Assay (cellular/catalytic ELISA, VEGF-stimulated phosphotyrosine); assay type: cell-based; parameters: concentration or dose not given beside the values
Protocol: The cellular/catalytic assays described herein are performed in an ELISA format. The general procedure is as follows: a compound is introduced to cells expressing the test kinase, either naturally or recombinantly, for a selected period of time after which, if the test kinase is a receptor, a ligand known to activate the receptor is added. The cells are lysed and the lysate is transferred to the wells of an ELISA plate previously coated with a specific antibody recognizing the substrate of the enzymatic phosphorylation reaction. Non-substrate components of the cell lysate are washed away and the amount of phosphorylation on the substrate is detected with an antibody specifically recognizing phosphotyrosine compared with control cells that were not contacted with a test compound.
An ELISA assay is conducted to measure the kinase activity of the FLK-1 receptor and more specifically, the inhibition or activation of TK activity on the FLK-1 receptor. Specifically, the following assay can be conducted to measure kinase activity of the FLK-1 receptor in cells genetically engineered to express Flk-1.
a. Corning 96-well ELISA plates (Corning Catalog No. 25805-96);
b. Cappel goat anti-rabbit IgG (catalog no. 55641);
c. PBS (Gibco Catalog No. 450-1300EB);
d. TBSW Buffer (50 mM Tris (pH 7.2), 150 mM NaCl and 0.1% Tween-20);
e. Ethanolamine stock (10% ethanolamine (pH 7.0), stored at 4° C.);
f. HNTG buffer (20 mM HEPES buffer (pH 7.5), 150 mM NaCl, 0.2% Triton X-100, and 10% glycerol);
g. EDTA (0.5 M (pH 7.0) as a 100× stock);
h. Sodium orthovanadate (0.5 M as a 100× stock);
i. Sodium pyrophosphate (0.2 M as a 100× stock);
j. NUNC 96 well V bottom polypropylene plates (Applied Scientific Catalog No. AS-72092);
k. NIH3T3 C7#3 Cells (FLK-1 expressing cells);
l. DMEM with 1× high glucose L-Glutamine (catalog No. 11965-050);
n. L-glutamine, Gibco (catalog no. 25030-016);
o. VEGF, PeproTech, Inc. (catalog no. 100-20)(kept as 1 μg/100 μl stock in Milli-Q dH2O and stored at −20° C.;
p. Affinity purified anti-FLK-1 antiserum;
q. UB40 monoclonal antibody specific for phosphotyrosine (see, Fendley, et al., 1990, Cancer Research 50:1550-1558);
r. EIA grade Goat anti-mouse IgG-POD (BioRad catalog no. 172-1011);
s. 2,2-azino-bis(3-ethylbenz-thiazoline-6-sulfonic acid (ABTS) solution (100 mM citric acid (anhydrous), 250 mM Na2HPO4 (pH 4.0), 0.5 mg/ml ABTS (Sigma catalog no. A-1888)), solution should be stored in dark at 4° C. until ready for use;
t. H2O2 (30% solution) (Fisher catalog no. H325);
u. ABTS/ H2O2 (15 ml ABTS solution, 2 μl H2O2) prepared 5 minutes before use and left at room temperature;
v. 0.2 M HCl stock in H2O;
w. dimethylsulfoxide (100%) (Sigma Catalog No. D-8418); and
y. Trypsin-EDTA (Gibco BRL Catalog No. 25200-049).
1. Coat Corning 96-well ELISA plates with 1.0 μg per well Cappel Anti-rabbit IgG antibody in 0.1M Na2CO3 pH 9.6. Bring final volume to 150 μl per well. Coat plates overnight at 4° C. Plates can be kept up to two weeks when stored at 4° C.
2. Grow cells in Growth media (DMEM, supplemented with 2.0 mM L-Glutamine, 10% FBS) in suitable culture dishes until confluent at 37° C., 5% CO2.
3. Harvest cells by trypsinization and seed in Corning 25850 polystyrene 96-well round bottom cell plates, 25,000 cells/well in 200 μl of growth media.
4. Grow cells at least one day at 37° C., 5% CO2.
5. Wash cells with D-PBS 1×.
6. Add 200 μl/well of starvation media (DMEM, 2.0 mM 1-Glutamine, 0.1% FBS). Incubate overnight at 37° C., 5% CO2.
7. Dilute Compounds 1:20 in polypropylene 96 well plates using starvation media. Dilute dimethylsulfoxide 1:20 for use in control wells.
8. Remove starvation media from 96 well cell culture plates and add 162 μl of fresh starvation media to each well.
9. Add 18 μl of 1:20 diluted compound dilution (from step 7) to each well plus the 1:20 dimethylsulfoxide dilution to the control wells (+/− VEGF), for a final dilution of 1:200 after cell stimulation. Final dimethylsulfoxide is 0.5%. Incubate the plate at 37° C., 5% CO2 for two hours.
10. […]

Going from `Cc1c(Br)cc(Br)c2c1C(=Cc1ccc(F)cc1)C(=O)N2` [10717/H05] to `Cc1c(Br)cc(Br)c2c1C(=Cc1ccc(Br)cc1)C(=O)N2` [10717/H08], the “Flk Kinase % Inhibition (P.110)” value falls from 5.0% to −8.4%.

First: Cc1c(Br)cc(Br)c2c1C(=Cc1c[nH]c3ccccc13)C(=O)N2 [10717/H06]
Second: Cc1c(Br)cc(Br)c2c1C(=Cc1coc3ccccc3c1=O)C(=O)N2 [10727/H07]
The “Flk Kinase % Inhibition (P.110)” value of the first is higher: 12.5% for the first, −9.7% for the second.

First: Cc1ccc(C=C2C(=O)Nc3c(Br)cc(Br)c(C)c32)s1 [10717/H07]
Second: CCc1ccc(C=C2C(=O)Nc3c(Br)cc(Br)c(C)c32)s1 [10726/H10]
The “Flk Kinase % Inhibition (P.110)” value of the first is lower: 1.1% for the first, 11.0% for the second.

First: Cc1c(Br)cc(Br)c2c1C(=Cc1ccc[nH]1)C(=O)N2 [10717/H09]
Second: Cc1c(Br)cc(Br)c2c1C(=Cc1ccccn1)C(=O)N2 [10729/H07]
The “Flk Kinase % Inhibition (P.110)” value of the first is lower: −17.5% for the first, 9.9% for the second.

First: COc1cccc(O)c1C=C1C(=O)Nc2c(Br)cc(Br)c(C)c21 [10717/H10]
Second: COc1cccc(OC)c1C=C1C(=O)Nc2c(Br)cc(Br)c(C)c21 [10728/H03]
The “Flk Kinase % Inhibition (P.110)” value of the first is lower: −5.0% for the first, −2.1% for the second.

First: Cc1[nH]c(C=C2C(=O)Nc3c(Br)cc(Br)c(C)c32)c(Br)c1Br [10717/H11]
Second: CCc1cc(CC)c(C=C2C(=O)Nc3c(Br)cc(Br)c(C)c32)[nH]1 [10727/H03]
The “Flk Kinase % Inhibition (P.110)” value of the first is lower: −0.4% for the first, 4.3% for the second.

Compared with `Cc1c(Br)cc(Br)c2c1C(=Cc1ccc(Br)o1)C(=O)N2` [10726/H05], `Cc1cc(C=C2C(=O)Nc3c(Br)cc(Br)c(C)c32)oc1C` [10730/H11] is higher in “Flk Kinase % Inhibition (P.110)” value: −6.1% for the first, 13.9% for the second.

First: Cc1cn(C)cc1C=C1C(=O)Nc2c(Br)cc(Br)c(C)c21 [10726/H06]
Second: Cc1ccsc1C=C1C(=O)Nc2c(Br)cc(Br)c(C)c21 [10729/H05]
The “Flk Kinase % Inhibition (P.110)” value of the first is lower: 17.5% for the first, 22.4% for the second.

Going from `Cc1c(Br)cc(Br)c2c1C(=Cc1cc(O)c3c(c1O)CCCC3)C(=O)N2` [10726/H07] to `Cc1c(Br)cc(Br)c2c1C(=Cc1cc(O)ccc1O)C(=O)N2` [10727/H10], the “Flk Kinase % Inhibition (P.110)” value rises from −9.5% to −8.3%.

First: Cc1c(Br)cc(Br)c2c1C(=C1C(=O)Nc3ccc(F)cc31)C(=O)N2 [10726/H08]
Second: Cc1c(Br)cc(Br)c2c1C(=C1C(=O)Nc3ccccc31)C(=O)N2 [10726/H09]
The “Flk Kinase % Inhibition (P.110)” value of the first is lower: −15.0% for the first, 1.5% for the second.

First: COc1ccc(C=C2C(=O)Nc3c(Br)cc(Br)c(C)c32)cc1 [10726/H11]
Second: CSc1ccc(C=C2C(=O)Nc3c(Br)cc(Br)c(C)c32)cc1 [10729/H04]
The “Flk Kinase % Inhibition (P.110)” value of the first is higher: 12.9% for the first, 1.1% for the second.

Going from `CCN(CC)c1ccc(C=C2C(=O)Nc3c(Br)cc(Br)c(C)c32)cc1` [10727/H02] to `Cc1c(Br)cc(Br)c2c1C(=Cc1ccc(C#N)cc1)C(=O)N2` [10727/H09], the “Flk Kinase % Inhibition (P.110)” value falls from −1.2% to −1.4%.

First: Cc1c(Br)cc(Br)c2c1C(=Cc1cc(Cl)cc(Br)c1O)C(=O)N2 [10727/H04]
Second: Cc1c(Br)cc(Br)c2c1C(=Cc1cc3c(cc1Cl)OCO3)C(=O)N2 [10727/H06]
The “Flk Kinase % Inhibition (P.110)” value of the first is higher: 1.8% for the first, −4.4% for the second.

Going from `Cc1c(Br)cc(Br)c2c1C(=Cc1ccccc1Sc1ccc(Cl)cc1)C(=O)N2` [10727/H05] to `Cc1c(Br)cc(Br)c2c1C(=Cc1cc3ccccc3nc1Cl)C(=O)N2` [10730/H08], the “Flk Kinase % Inhibition (P.110)” value rises from 5.5% to 9.2%.

Compared with `Cc1c(Br)cc(Br)c2c1C(=Cc1cccc(C#N)c1)C(=O)N2` [10727/H08], `Cc1c(Br)cc(Br)c2c1C(=Cc1cccnc1)C(=O)N2` [10729/H08] is higher in “Flk Kinase % Inhibition (P.110)” value: 2.9% for the first, 8.2% for the second.

Compared with `COc1cccc(C=C2C(=O)Nc3c(Br)cc(Br)c(C)c32)c1OC` [10727/H11], `COc1ccc(C=C2C(=O)Nc3c(Br)cc(Br)c(C)c32)c(OC)c1OC` [10730/H02] is higher in “Flk Kinase % Inhibition (P.110)” value: 3.7% for the first, 21.2% for the second.

Going from `COc1ccc(OC)c(C=C2C(=O)Nc3c(Br)cc(Br)c(C)c32)c1` [10728/H02] to `COc1cc(C=C2C(=O)Nc3c(Br)cc(Br)c(C)c32)cc(OC)c1` [10728/H04], the “Flk Kinase % Inhibition (P.110)” value rises from −13.3% to −4.3%.

Compared with `Cc1c(Br)cc(Br)c2c1C(=Cc1ccc3c(c1)Cc1ccccc1-3)C(=O)N2` [10728/H06], `CCn1c2ccccc2c2cc(C=C3C(=O)Nc4c(Br)cc(Br)c(C)c43)ccc21` [10731/H02] is higher in “Flk Kinase % Inhibition (P.110)” value: 7.9% for the first, 19.7% for the second.

First: Cc1c(Br)cc(Br)c2c1C(=Cc1cccc(C(F)(F)F)c1F)C(=O)N2 [10728/H07]
Second: Cc1c(Br)cc(Br)c2c1C(=Cc1c(F)cccc1C(F)(F)F)C(=O)N2 [10728/H09]
The “Flk Kinase % Inhibition (P.110)” value of the first is higher: 1.5% for the first, 0.7% for the second.

Compared with `Cc1c(Br)cc(Br)c2c1C(=Cc1ccccc1OCC(=O)O)C(=O)N2` [10728/H10], `CC(=O)n1cc(C=C2C(=O)Nc3c(Br)cc(Br)c(C)c32)c2ccccc21` [10730/H05] is higher in “Flk Kinase % Inhibition (P.110)” value: −3.8% for the first, 11.7% for the second.

Compared with `COc1cc(C=C2C(=O)Nc3c(Br)cc(Br)c(C)c32)cc2c1OCO2` [10728/H11], `COc1cc(C=C2C(=O)Nc3c(Br)cc(Br)c(C)c32)cc(OC)c1OC` [10730/H04] is higher in “Flk Kinase % Inhibition (P.110)” value: 3.3% for the first, 12.1% for the second.

Going from `COc1ccc2ccccc2c1C=C1C(=O)Nc2c(Br)cc(Br)c(C)c21` [10729/H02] to `COc1ccc(C=C2C(=O)Nc3c(Br)cc(Br)c(C)c32)c2ccccc12` [10729/H03], the “Flk Kinase % Inhibition (P.110)” value rises from 14.3% to 18.3%.

First: Cc1c(Br)cc(Br)c2c1C(=Cc1cccc(Oc3ccccc3)c1)C(=O)N2 [10729/H06]
Second: Cc1c(Br)cc(Br)c2c1C(=Cc1ccc(-c3ccccc3Cl)o1)C(=O)N2 [10730/H07]
The “Flk Kinase % Inhibition (P.110)” value of the first is lower: 11.0% for the first, 19.0% for the second.

Going from `Cc1c(Br)cc(Br)c2c1C(=Cc1ccncc1)C(=O)N2` [10729/H09] to `Cc1c(Br)cc(Br)c2c1C(=Cc1ccc(N3CCCC3)cc1)C(=O)N2` [10729/H10], the “Flk Kinase % Inhibition (P.110)” value rises from −2.7% to 5.3%.

Going from `Cc1c(Br)cc(Br)c2c1C(=CC1C=CCCC1)C(=O)N2` (centres unmarked) [10729/H11] to `C=C(C)C1CC=C(C=C2C(=O)Nc3c(Br)cc(Br)c(C)c32)CC1` (centres unmarked) [10731/H04], the “Flk Kinase % Inhibition (P.110)” value rises from 8.9% to 16.4%.

Compared with `COc1cc(OC)c(OC)cc1C=C1C(=O)Nc2c(Br)cc(Br)c(C)c21` [10730/H03], `Cc1cc2occ(C=C3C(=O)Nc4c(Br)cc(Br)c(C)c43)c(=O)c2cc1C` [10731/H03] is higher in “Flk Kinase % Inhibition (P.110)” value: 11.5% for the first, 20.0% for the second.

Going from `COC1CC(C=C2C(=O)Nc3c(Br)cc(Br)c(C)c32)C(OC)O1` (centres unmarked) [10730/H10] to `Cc1ccc2occ(C=C3C(=O)Nc4c(Br)cc(Br)c(C)c43)c(=O)c2c1` [10731/H06], the “Flk Kinase % Inhibition (P.110)” value rises from 18.3% to 28.7%.

In the case of `Cc1c(Br)cc(Br)c2c1C(=Cc1coc3ccc(C(C)C)cc3c1=O)C(=O)N2` [10731/H05], the “Flk Kinase % Inhibition (P.110)” value is reported as 23.6%.

In the case of `COc1cc(N(C)C)ccc1C=C1C(=O)Nc2c(Br)cc(Br)c(C)c21` [10728/H05], the “Flk Kinase % Inhibition (P.110)” value is reported as 1.1% and −4.4%.
